From US8853264B2, “Use of lignan compounds for treating or preventing inflammatory disease” (Newtree Industry Co., Ltd., priority 2005, dated 2014)

How the values were obtained:
[1] = Toxicity in oral administration to rats; settings: rat, in vivo, read-out: 50% lethality (LD50)
Protocol: The inventive lignan compound was tested for toxicity in oral administration to rats, and as a result, it was observed that the 50% lethality (LD50) was more than 2,000 mg/kg.

[2] = tested on: CD4 T cells; assay: T cell proliferation by MTT assay; type: cell-based, mouse; settings: antibody (CD3 & CD28) stimulation; macelignan 0.01-100 μg/ml
Text: In order to investigate how macelignan directly affects T cells, the cells were stimulated and treated with macelignan at the same time. Wild type and OT-II transgenic mouse CD4 T cells, and antigen presenting cells were used (T cell receptor of CD4 T cells of OT-II transgenic mouse cells is specific for OVA peptide323-339). Wild type CD4 T cells were stimulated with anti-CD3 and anti-CD28 antibodies (BD Pharmigen, San Diego, Calif.), and OT-II transgenic CD4 T cells were stimulated with OVA peptide (Baylor College of Medicine Protein Co-facility). The effect of macelignan was determined by the degree of proliferation of the T cells by MTT assay and by the level of cytokine production. After culturing for 4 days, the level of cytokine production was measured from the supernatant by ELISA. MTT assay was performed using cell proliferation assay kit I (Roche). Cytokines IL-4, IL-17 and IFN-g were detected. ELISA was performed using primary antibody, secondary antibody, streptavidin-alkaline phosphatase (BD Pharmigen) and phosphatase substrate (Sigma-Aldrich, St. Louis, Mo.) according to the manufacturer's instructions.

[3] = tested on: NO; assay: NO production in RAW264.7 cells activated with LPS (Griess); type: cell-based
Protocol: RAW264.7 cells were diluted at a concentration of 1×10^6 cell/ml and then inoculated into RPMI 1640 medium. After 5 hours, the inventive macelignan was added to the medium at each of a concentration of 1-20 μM, followed by incubation for 2 hours. Then, the medium was treated with LPS (10 μg/ml) and incubated for 24 hours. A control group was treated only with LPS. The production of NO was quantified by measuring NO2^−, a reaction product of NO, using the remains of cell culture (Han et al., Life Sci., 75(6): 675-684, 2004). 100 μl of the remains of cell culture and the same volume of Greiss reagent (0.5% sulfanilyamide, 0.05% N-(1-naphthyl)ethylene diamine dihydrochloride/2.5% H3PO4) were mixed with each other on a 96-well tissue culture plate and allowed to react in a dark place for 10 minutes. Then, the absorbance of the sample was measured at 550 nm using the ELISA microplate reader. […] All tests were repeated at three times, and then quantified by student's t-test.

[4] = tested on: RAW264.7 cells; assay: MTT cytotoxicity assay on RAW264.7 cells; type: cell-based; settings: macelignan 1-20 μM, 24 hours
Protocol: In order to examine the effect of macelignan obtained in <Example 1> on the production of inflammatory response mediators, the macrophage RAW264.7 cell line was used. The macrophage RAW264.7 cell line (ATCC TIB-71) was purchased from American Tissue Culture Collection (Rockville, Md., USA). The cell line was cultured in DMEM (Dulbecco's Modified Eagle's Medium, Gibco, USA) supplemented with 10% heat inactivated FBS (fetal bovine serum, Gibco, USA), 100 U/ml penicillin G and 100 μg/ml streptomycin, in a 5% CO2 incubator at 37° C. In order to examine the effect of the inventive macelignan on the viability of RAW 264.7 cells, analysis was performed based on the reduction of MTT changed into a purple formazan product by mitochondrial dehydrogenase (Hayon T. et al., Leuk. Lymphoma. 44(11): 1957-1962, 2003). 1×10^6 cells/ml of RAW264.7 cells were inoculated into RPMI 1640 medium, and after 6 hours, were treated with the inventive macelignan at concentrations up to 1-80 μM/ml. After 24 hours, the viability of the cells was measured by the MTT assay.

SMILES: COc1cc(C[C@H](C)[C@H](C)Cc2ccc3c(c2)OCO3)ccc1O (single isomer, unassigned) [macelignan]
- LD50 [1]: > 2000 mg/kg
- proliferation of T cells [2]: no effect
- inhibition of NO production at low concentrations ([3]; 1 μM and 5 μM, P<0.01): excellent effects on the inhibition of NO production
- production of NO at 20 μM ([3]; 20 μM macelignan): inhibited to an extent almost similar to that of the group treated with nothing
- production of NO ([3]; 1-20 μM, LPS 10 μg/ml, 24 hours): concentration-dependently inhibited
- viability of the RAW264.7 cells [4]: no significant effect
